Columns and labels:
Assay type in all cases: cell-based
[1] = test system: E. coli strains carrying ESBL mutants of TEM; assay: checkerboard assay (FICI), TEM3.2 versus ampicillin
Source text: FIGS. 2A-2M. (FIG. 2A) TEM mutations and their effects on stability (total energy) as predicted by FoldX. […] Dashed line indicates a total energy difference of 0.5 kcal/mol, the FoldX cut-off above which mutations are considered to be destabilizing. (FIG. 2B) Barplot mapping mutations in (FIG. 2A) to the TEM sequence and indicating occurrence. […] The bar heights correspond to the number of times a mutation occurs across different TEM variants (right-hand y-axis). The color coding is identical to that in (FIG. 2A). Red line indicates the TANGO scores (indicated on the left-hand y-axis), with peaks corresponding to APRs. […]
Moreover, the core sequence of peptide TEM3.0 also occurs in the structurally related SHV β-lactamase (FIG. 2E). […] To quantify the synergy between these four peptides and penicillin G, we performed a so-called checkerboard assay, which allows to compare the activity of two test compounds co-incubated (here peptide and a beta-lactam antibiotic), to their individual activities in isolation. The result from the assay is quantified as the Fractional Inhibitory Concentration Index (FICI), and it is generally accepted that values below 0.5 indicate synergistic effects between the compounds. […] We evaluated the synergy of the peptides with penicillin G in clinical E. coli isolates carrying the TEM (FIG. 2I) or SHV enzymes (FIG. 2J). […]

[2] = test system: E. coli strain lacking TEM (ATCC 25922); assay: Structured Illumination Microscopy of peptide-treated bacteria lacking TEM; conditions: same treatment as UZ_TEM104
Method: FIGS. 3A-3P. […] Three replicates are shown for each condition. […] A single representative image is shown. […] Three replicates are shown for each condition. (FIG. 3E) [Left] […] [Middle] […] [Right] […] A single representative image is shown. […] A single representative image is shown. […] A single representative image is shown. […] A single representative blot is shown. […] 106 cells were analysed for the plot.
Moreover, we confirmed the presence of the protein in the correct band using mass spectrometry proteomics. We repeated this with a strain expressing SHV-154, blotting with a polyclonal rabbit antibody raised against the recombinant SHV enzyme described above (FIG. 3K).
The bacterial cultures were washed with PBS and the number of the bacteria were adjusted to 10^8-10^9 cells/mL. […] Then, cells were treated with LCO dyes (pFTAA; Amytacker™ 680 or Amytacker™ 545: final concentration of 0.5 μM; Ebba Biotech, Sweden) for at least 90 min. The absorption, emission and excitation spectra for each dye were measured based on the standard Ebbabiotec advice (ebbabiotech.com).
Bacteria were fixed by adding 2.5% paraformaldehyde and 0.04% glutaraldehyde (final concentrations) to the culture media, followed by incubation at room temperature for 15 mins and 30 mins on ice. Bacteria were then washed in PBS and resuspended in GTE buffer (50 mM glucose, 25 mM Tris, and 10 mM EDTA, pH 8.0). […]

[3] = test system: human erythrocytes
Source text: FIGS. 4A-4K. […] IV—Intravenous, IP—Intraperitoneal, SC—Subcutaneously. The data shown is from a single experiment with 4 animals per group. […] (ns—non significant, #—P>0.05, *—P≤0.05, ***—P≤0.01, ****—P≤0.001). (FIG. 4G) FICI plot as in FIG. 2, for the E. coli strains indicated and the combination of penicillin and the TEM3.2 peptide. […] (FIG. 4J) Same as FIG. 4H for peptide BGAL. (FIG. 4K) Same as FIG. 4H for peptide P33.
Given this broad activity on clinical isolates, we wondered if the TEM3.2 peptide could be used to re-sensitize bacteria to ampicillin treatment in vivo, in a mouse Urinary Tract Infection (UTI) model.
EDTA was used as the anticoagulant. […] Plate centrifuged for 10 min at 3000×g. […] Erythrocytes in 1% Triton and maximum used concentration of buffer were used as the control of 100% and 0% hemolysis, respectively.

Ac-RLTAFLHNRRPRLTAFLRQRR-NH2 [TEM3.2]
synergy with ampicillin (FICI) [1]: synergy
inclusion body formation [2]: only very limited inclusion body formation
hemolysis of human erythrocytes [3]: not hemolytic

— patent US20240165196A1, “Beta-Lactamase Inhibitors” (VIB VZW, priority 2021, published 2024)
